PMC3328449, “Inhibition of Diacylglycerol–Sensitive TRPC Channels by Synthetic and Natural Steroids” (PLoS ONE, 2012)
pIC50: −log10 of the molar value.

Target: T1, mTRPC4ß (Mus musculus, UniProt Q9QUQ5)
T1 construct: expressed in transfected cells
T1 sequence (Q9QUQ5 1-890 isoform Q9QUQ5-2): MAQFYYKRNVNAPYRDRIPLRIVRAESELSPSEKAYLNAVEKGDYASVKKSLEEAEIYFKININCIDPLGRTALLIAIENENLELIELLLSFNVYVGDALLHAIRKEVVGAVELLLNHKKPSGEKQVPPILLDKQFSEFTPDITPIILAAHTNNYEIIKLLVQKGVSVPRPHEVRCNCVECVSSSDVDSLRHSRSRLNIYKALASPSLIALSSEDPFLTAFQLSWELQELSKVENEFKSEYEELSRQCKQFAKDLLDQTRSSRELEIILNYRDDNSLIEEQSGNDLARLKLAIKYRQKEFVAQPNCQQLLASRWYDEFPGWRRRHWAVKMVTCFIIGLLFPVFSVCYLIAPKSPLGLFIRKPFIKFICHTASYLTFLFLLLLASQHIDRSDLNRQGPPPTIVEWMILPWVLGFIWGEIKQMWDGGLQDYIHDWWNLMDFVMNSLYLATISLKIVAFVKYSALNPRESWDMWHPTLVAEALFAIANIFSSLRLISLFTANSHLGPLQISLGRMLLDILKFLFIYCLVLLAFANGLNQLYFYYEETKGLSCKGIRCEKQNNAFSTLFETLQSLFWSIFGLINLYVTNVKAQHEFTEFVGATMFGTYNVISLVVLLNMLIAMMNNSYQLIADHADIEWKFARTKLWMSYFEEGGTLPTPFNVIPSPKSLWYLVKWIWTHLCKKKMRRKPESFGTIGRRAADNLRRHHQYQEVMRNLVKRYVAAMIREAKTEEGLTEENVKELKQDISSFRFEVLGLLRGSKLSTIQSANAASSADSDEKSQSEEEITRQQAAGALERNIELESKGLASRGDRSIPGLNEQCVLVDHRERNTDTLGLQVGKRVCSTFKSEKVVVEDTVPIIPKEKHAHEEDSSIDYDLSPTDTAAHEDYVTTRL
Assay: Trypsin-induced Ca2+ entry, fluo-4 fluorometric imaging plate reader, TRPC4 HEK-FITR cells
Type: cell-based
Experimental: Cells were grown at 37°C in a humidified atmosphere (5% or 7% CO2) under standard cell culture conditions. Stable human embryonic kidney (HEK) cell lines expressing recombinant mTRPC4ß (GenBank accession number AAC05178); mTRPC5 (GenBank accession number NM_009428) or hTRPC6 (GenBank accession number AF080394) under the control of a tetracycline-inducible promoter were generated using the Flp-In T-Rex (FITR) system (Invitrogen, Karlsruhe, Germany). […]
Cells grown to an almost confluent monolayer on black poly-D-lysine coated 96-well plates (Greiner, Frickenhausen, Germany) were washed with standard extracellular solution (140 mM NaCl, 1 mM MgCl2, 5.4 mM KCl, 2 mM CaCl2, 10 mM HEPES, 10 mM glucose, pH 7.35) and stained (30 min, room temperature) with dye solution (2 µM fluo-4 AM, 0.02% pluronic F127, 0.1% bovine serum albumin in standard extracellular solution). […] Fluo-4 fluorescence was excited at 488 nm with an argon laser and measured using a fluorometric imaging plate reader (Molecular Devices, Sunnyvale, USA). […]
TRPC4- and TRPC5-mediated Ca^2+ influx was stimulated by application of trypsin that activates endogenous Gq-coupled protease activated receptors in HEK cells. […] Compound effects were then calculated from the area under the curve and normalized to the Ca^2+ influx into trypsin-stimulated, non-compound-treated cells. […]

SMILES: CC(=O)[C@H]1CC[C@H]2[C@@H]3CCC4=CC(=O)CC[C@]4(C)[C@H]3CC[C@]12C [progesterone]
- pIC50 (TRPC4 HEK-FITR cells, fluo-4, 200 nM trypsin, read-out: IC50, inhibition of trypsin-induced Ca2+ entry via TRPC4): 5.21
- Hill slope n, inhibition of TRPC4-mediated Ca2+ entry (fit to Hill model): 1.15
